From patent US4690920A, “Derivative of cephalosporanic acid and pharmaceutical composition comprising the same” (Kureha Kagaku Kogyo Kabushiki Kaisha, priority 1982, dated 1987)
Values belong to the compound of their own block, whether it stands above or below them.

Legend:
Escherichia coli = assay: Effect on the intestinal bacterial colonies: number of Escherichia coli in feces; format: in vivo, Escherichia coli (feces of female ICR mice); conditions: for Log10 value of the number of bacterial cells/g of feces, Escherichia coli: oral, 500 mg/kg/day for 2 days, feces one day after administration, before administration 7.0
Protocol: (§1) After collecting the feces of a group of mice, each of the compounds represented by the formula (I) was orally administered to each of the group for 2 continued days at a daily dose rate of 500 mg per kg body weight, and the feces were again collected one day after the administration. Each portion of the thus collected, two kinds of the feces was cultured at 25° C. or 37° C. in a variety of culture media for one to five days to see the state of growth of the following bacteria which are present habitually in the intestine of the mouse: Escherichia coli, Pseudomonas aeruginosa, a streptococcus bacterial species, a lactobacillis bacteria, Lactobacillus bifidus and a bacterioides bacteria.
(§2) Each of the compounds, respectively produced in Examples 1 to 6 was orally administered for two continued days at a daily dosage of 500 mg/kg body weight to each of five female ICR mice of a group after 6 weeks of birth.
(§3) Each of the two fecal specimens respectively collected before and after one day of the administration was diluted with 100 times by weight of an anaerobic diluent (a phosphoric buffer solution) and was ground in a mortar, and 0.1 ml of the ground material was smeared on each of the following culture media for the following bacteria and the thus inoculated culture media were incubated under the following conditions. Thereafter, the number of the following bacteria was determined on each culture medium.
DHL agar 37° C., for 1 day, […]

[1] = test system: A species of Streptococcus; assay: Effect on the intestinal bacterial colonies: number of a species of Streptococcus in feces; format: in vivo, Streptococcus (feces of female ICR mice); conditions: oral, 500 mg/kg/day for 2 days; feces one day after administration; before administration 6.4
Protocol: as §1, §2, §3
a species of TATAC agar 37° C., for 1 day, […]

[2] = test system: A species of Lactobacillus; assay: Effect on the intestinal bacterial colonies: number of a species of Lactobacillus in feces; format: in vivo, Lactobacillus (feces of female ICR mice); conditions: for Log10 value of the number of bacterial cells/g of feces, a species of Lactobacillus: oral, 500 mg/kg/day for 2 days, feces one day after administration, before administration 9.0
Protocol: as §1, §2, §3
a species of LBS agar 37° C., for 5 days, […]

Lactobacillus bifidus = assay: Effect on the intestinal bacterial colonies: number of Lactobacillus bifidus in feces; format: in vivo, Lactobacillus bifidus (feces of female ICR mice); conditions: oral, 500 mg/kg/day for 2 days; feces one day after administration; before administration 8.0
Protocol: as §1, §2, §3
BS agar 37° C., for 5 days, […]

[3] = test system: A species of Bacterioides; assay: Effect on the intestinal bacterial colonies: number of a species of Bacterioides in feces; format: in vivo, Bacteroides (feces of female ICR mice); conditions: oral, 500 mg/kg/day for 2 days; feces one day after administration; before administration 8.1
Protocol: as §1, §2, §3
a species of NBGT agar 37° C., for 5 days,7 -Bacteroides anaer

Pseudomonas aeruginosa = assay: Effect on the intestinal bacterial colonies: number of Pseudomonas aeruginosa in feces; format: in vivo, Pseudomonas aeruginosa (feces of female ICR mice); conditions: oral, 500 mg/kg/day for 2 days; feces one day after administration; before administration <3.0
Protocol: as §1, §2, §3
NAC agar 37° C., for 1 day, […]

[4] = test system: Staphylococcus aureus IAM 1011; assay: Model test for verifying the activation in living body: growth-inhibition circle with/without rat liver S-9 mix; format: cell-based; conditions: 20 min at 37° C., then 18 hours at 37° C.; for Sign: diameter of growth-inhibiting circle as percentage of that due to compound of formula (II), with the addition of S-9 mix: with the addition of S-9 mix (rat liver homogenate)
Protocol: On each flat culture plate prepared by adding 10^8 cells/ml of a preliminarily cultured Staphylococcus aureus IAM 1011 into 50 times by weight of Mueller-Hinton's agar culture medium, a penicillin cup of 8 mm in diameter was placed, and into each cup 0.1 ml of each of the compounds represented by the formula (I) or 0.1 ml of a cultured product of each of the compounds represented by the formula (I) together with a rat liver homogenate (containing a metabolism-activating enzyme, referred to as S-9 mix) was introduced. The diameter of each growth-inhibition circle formed around the cup after incubating the flat culture plate with the cup for 18 hours at 37° C. was measured, and the thus obtained value was compared to the value obtained by the same procedures except for using the compound represented by the formula (II), the starting compound instead of each of the compounds represented by the formula (I).
As a metabolism-activating enzyme, a rat liver homogenate (S-9, manufactured by Oriental Yeast Co.) was used in the following composition (referred to as S-9 mix, hereinafter):
After mixing 0.1 ml of a solution of the compound to be tested with 0.9 ml of S-9 mix or 0.9 ml of 0.1M phosphoric acid buffer solution, the mixture was subjected to shaking culture for 20 min at 37° C. to prepare a test reaction solution for use in the following experiment.
Staphylococcus aureus IAM 1011 was inoculated to Mueller-Hinton's culture medium and the inoculum was cultured for 18 hours at 37° C. and after adjusting the number of the bacterial cells to 10^8 /ml of the culture medium, 50 times by weight of the Mueller-Hinton's agar culture medium were added to the cultured medium to prepare flat culture plates.
After placing a penicillin-cup of 8 mm in diameter on each of the thus prepared flat culture plates, 0.1 ml of the above-mentioned test reaction solution was introduced into the penicillin-cup, and after leaving the system for 2 hours at 4° C., the system was incubated for 18 hour at 37° C., and the diameter of the growth-inhibition circle around the cup on the culture plate was determined.
The thus obtained diameter of the growth-inhibiting circle due to each of the compounds produced respectively in Examples 1 to 6 was compared to that due to the compound repesente by the formula (II), substituted cephalosporanic acid by percentage, and the following signs were respectively given to the respective compounds as follows: […]

[5] = test system: Escherichia coli IFO 12734; assay: Anti-bacterial activity, agar plate dilution method (MIC), Escherichia coli; format: cell-based; conditions: 18 to 24 hours, 37° C.; for Minimum concentration of inhibiting growth of Escherichia coli (MIC): Mueller-Hinton agar; for MIC: IFO12734, Mueller-Hinton agar, read-out: Minimum concentration of inhibiting growth of Escherichia coli (MIC)
Protocol: (§4) 3-1: The minimum growth-inhibiting concentration (MIC) of each of the compounds represented by the formula (I) was measured according to the standard procedures of Japan Society of Chemotherapy against each of the following bacterial species:
Escherichia coli, IFO 12734 and
(§5) Anti-bacterial activity of each of the compounds produced in Examples 1 to 6 was measured according to the standard procedures of Japan Society of Chemotherapy in agar plate dilution method as follows:
(§6) As a test bacterial species, Escherichia coli IFO 12734 and Staphylococcus aureus IAM 1011, and each strain was inoculated into Mueller-Hinton's culture medium for 18 to 48 hours at 37° C., and while using the thus cultured bacteria, each of the test bacterial liquid containing 10^6 cells in one ml was prepared.
(§7) Separately, after preparing each series of diluted aqueous solutions of each of the compounds produced in Examples 1 to 6, respectively, each of them was mixed in amount of 1/9 time by weight with the Mueller-Hinton's culture medium and each flat agar culture plate was prepared by using the thus formed mixture.

[6] = test system: Staphylococcus aureus IAM 1011; assay: Anti-bacterial activity, agar plate dilution method (MIC), Staphylococcus aureus; format: cell-based; conditions: 18 to 24 hours, 37° C.; for Minimum concentration of inhibiting growth of Staphylococcus aureus (MIC): Mueller-Hinton agar; for MIC: IAM1011, Mueller-Hinton agar, read-out: Minimum concentration of inhibiting growth of Staphylococcus aureus (MIC)
Protocol: as §4
Staphylococcus aureus, IAM 1011
as §5, §6, §7

[7] = compared to that before administration

SMILES: CO[C@@]1(NC(=O)CSCC#N)C(=O)N2C(C(=O)O)=C(CSc3nnnn3C)CS[C@@H]21 [CEFMETAZOLE, reference compound]
number of cells of Escherichia coli after administration (in words) (Escherichia coli; [7]): showed an increase
Log10 value of the number of bacterial cells/g of feces, Escherichia coli (Escherichia coli): < 3.0 Log10 cells/g of feces
Log10 value of the number of bacterial cells/g of feces, a species of Streptococcus [1]: < 3.0 Log10 cells/g of feces
number of a certain species of Lactobacillus after administration (in words) [2, 7]: showed a reduction
Log10 value of the number of bacterial cells/g of feces, a species of Lactobacillus [2]: 4.0 Log10 cells/g of feces
Log10 value of the number of bacterial cells/g of feces, Lactobacillus bifidus (Lactobacillus bifidus): 3.8 Log10 cells/g of feces
Log10 value of the number of bacterial cells/g of feces, a species of Bacterioides [3]: 4.6 Log10 cells/g of feces
Log10 value of the number of bacterial cells/g of feces, Pseudomonas aeruginosa (Pseudomonas aeruginosa): 7.0 Log10 cells/g of feces

SMILES: COC(=O)Cc1ccc(NC(=O)C2=C(CSc3nnnn3C)CS[C@H]3N2C(=O)[C@]3(NC(=O)CSCC#N)OC)cc1 [Example 3, N-(4-carbomethoxymethylphenyl)-{7-betacyanomethylthioacetamido-7-alpha-methoxy-3-[(1-methyl-1H-tetrazol-5-yl)thio]methyl-3-cepheme-4-carboxylic}amide]
Log10 value of the number of bacterial cells/g of feces, Escherichia coli (Escherichia coli): 7.1 Log10 cells/g of feces
Log10 value of the number of bacterial cells/g of feces, a species of Streptococcus [1]: 6.0 Log10 cells/g of feces
Sign: diameter of growth-inhibiting circle as percentage of that due to compound of formula (II), with the addition of S-9 mix [4]: ± (0 to 1)
Sign: diameter of growth-inhibiting circle as percentage of that due to compound of formula (II), without adding S-9 mix [4]: - (0)
Log10 value of the number of bacterial cells/g of feces, a species of Lactobacillus [2]: 9.1 Log10 cells/g of feces
Log10 value of the number of bacterial cells/g of feces, Lactobacillus bifidus (Lactobacillus bifidus): 7.9 Log10 cells/g of feces
Log10 value of the number of bacterial cells/g of feces, a species of Bacterioides [3]: 8.0 Log10 cells/g of feces
MIC [5]: ≥ 100 µg/mL
Log10 value of the number of bacterial cells/g of feces, Pseudomonas aeruginosa (Pseudomonas aeruginosa): < 3.0 Log10 cells/g of feces
MIC [6]: ≥ 100 µg/mL

SMILES: CO[C@@]1(NC(=O)CSCC#N)C(=O)N2C(C(=O)Nc3ccc(O)cc3)=C(CSc3nnnn3C)CS[C@@H]21 [Example 5, N-(4-hydroxyphenyl)-{7-beta-cyanomethylthioacetamido-7-alpha-methoxy-3-[(1-methyl-1H-tetrazol-5-yl)thio]methyl-3-cepheme-4-carboxylic}amide]
Log10 value of the number of bacterial cells/g of feces, Escherichia coli (Escherichia coli): 6.7 Log10 cells/g of feces
Log10 value of the number of bacterial cells/g of feces, a species of Streptococcus [1]: 6.6 Log10 cells/g of feces
Sign: diameter of growth-inhibiting circle as percentage of that due to compound of formula (II), with the addition of S-9 mix [4]: + (1 to 33)
Sign: diameter of growth-inhibiting circle as percentage of that due to compound of formula (II), without adding S-9 mix [4]: - (0)
Log10 value of the number of bacterial cells/g of feces, a species of Lactobacillus [2]: 9.0 Log10 cells/g of feces
Log10 value of the number of bacterial cells/g of feces, Lactobacillus bifidus (Lactobacillus bifidus): 8.2 Log10 cells/g of feces
Log10 value of the number of bacterial cells/g of feces, a species of Bacterioides [3]: 7.9 Log10 cells/g of feces
MIC [5]: ≥ 100 µg/mL
Log10 value of the number of bacterial cells/g of feces, Pseudomonas aeruginosa (Pseudomonas aeruginosa): < 3.0 Log10 cells/g of feces
MIC [6]: ≥ 100 µg/mL

The next lines start with results.

Minimum concentration of inhibiting growth of Escherichia coli (MIC) [5]: ≥ 100 microgram/ml
Minimum concentration of inhibiting growth of Staphylococcus aureus (MIC) [6]: ≥ 100 microgram/ml
SMILES: COC1(NC(=O)CSCC#N)C(=O)N2C(C(=O)Nc3ccc(C(=O)O)cc3)=C(CSc3nnnn3C)CSC21 (stereo not drawn) [Example 1, N-(4-carboxyphenyl)-{7-beta-cyanomethylthioacetamido-7-alpha-methoxy-3-[(1-methyl-1H-tetrazol5-yl)thio]methyl-3-cepheme-4-carboxylic}amide]
Log10 value of the number of bacterial cells/g of feces, Escherichia coli (Escherichia coli): 7.2 Log10 cells/g of feces
Log10 value of the number of bacterial cells/g of feces, a species of Streptococcus [1]: 6.0 Log10 cells/g of feces
Sign: diameter of growth-inhibiting circle as percentage of that due to compound of formula (II), with the addition of S-9 mix [4]: + (1 to 33)
Sign: diameter of growth-inhibiting circle as percentage of that due to compound of formula (II), without adding S-9 mix [4]: - (0)
Log10 value of the number of bacterial cells/g of feces, a species of Lactobacillus [2]: 8.9 Log10 cells/g of feces
Log10 value of the number of bacterial cells/g of feces, Lactobacillus bifidus (Lactobacillus bifidus): 8.0 Log10 cells/g of feces
Log10 value of the number of bacterial cells/g of feces, a species of Bacterioides [3]: 8.1 Log10 cells/g of feces
Log10 value of the number of bacterial cells/g of feces, Pseudomonas aeruginosa (Pseudomonas aeruginosa): < 3.0 Log10 cells/g of feces

Minimum concentration of inhibiting growth of Escherichia coli (MIC) [5]: ≥ 100 microgram/ml
Minimum concentration of inhibiting growth of Staphylococcus aureus (MIC) [6]: ≥ 100 microgram/ml
SMILES: COC(=O)c1ccc(NC(=O)C2=C(CSc3nnnn3C)CSC3N2C(=O)C3(NC(=O)CSCC#N)OC)cc1 (stereo not drawn) [Example 2, N-(4-carbomethoxyphenyl)-{7-beta-cyanomethylthioacetamido-7-alpha-methoxy-3-[(1-methyl-1H-tetrazol-5-yl)thio]methyl-3-cepheme-4-carboxylic}amide]
Log10 value of the number of bacterial cells/g of feces, Escherichia coli (Escherichia coli): 6.6 Log10 cells/g of feces
Log10 value of the number of bacterial cells/g of feces, a species of Streptococcus [1]: 6.2 Log10 cells/g of feces
Sign: diameter of growth-inhibiting circle as percentage of that due to compound of formula (II), with the addition of S-9 mix [4]: + (1 to 33)
Sign: diameter of growth-inhibiting circle as percentage of that due to compound of formula (II), without adding S-9 mix [4]: - (0)
Log10 value of the number of bacterial cells/g of feces, a species of Lactobacillus [2]: 9.1 Log10 cells/g of feces
Log10 value of the number of bacterial cells/g of feces, Lactobacillus bifidus (Lactobacillus bifidus): 8.0 Log10 cells/g of feces
Log10 value of the number of bacterial cells/g of feces, a species of Bacterioides [3]: 8.0 Log10 cells/g of feces
Log10 value of the number of bacterial cells/g of feces, Pseudomonas aeruginosa (Pseudomonas aeruginosa): < 3.0 Log10 cells/g of feces
